Drawing on PubChem BioAssay AID272 (DTP/NCI, 2004), this text covers T/C for 15 compounds.

Each structure is given as a SMILES string. Values joined by “and” are separate entries in the source; they are usually repeats but may differ in a detail not shown here. Equal values may be shown once. Records with an inconclusive call do not appear.

The test system of this assay is Lewis lung carcinoma i.m., BDF1 mice, T/C %. In words: NCI In Vivo Anticancer Drug Screen. Data for tumor model Lewis Lung Carcinoma (intramuscular) in B6D2F1 (BDF1) mice. The procedure, abridged:
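Antitumour activity is assessed in transplanted-tumour mice. Endpoint is survival or tumour size, normalised to vehicle-dosed controls (T/C).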

The mark [1] stands for this setting: endpoint: median survival time, dose: 100.0 mg/kg/injection, schedule: Q01DX011 (ip), vehicle: saline, higher = longer survival.
[2] abbreviates: endpoint: median survival time, dose: 200.0 mg/kg/injection, schedule: Q01DX011 (ip), vehicle: saline, higher = longer survival.
Setting [3] is: endpoint: median survival time, dose: 400.0 mg/kg/injection, schedule: Q01DX011 (ip), vehicle: saline, higher = longer survival.
[4] abbreviates: endpoint: mean tumor weight, dose: 100.0 mg/kg/injection, schedule: Q01DX011 (ip), vehicle: saline, higher = larger tumour.
Where [5] appears, read: endpoint: mean tumor weight (est.), dose: 2.0 mg/kg/injection, schedule: Q01DX011 (ip), vehicle: saline with Tween-80, higher = larger tumour.
Setting [6] is: endpoint: median survival time, dose: 2.0 mg/kg/injection, schedule: Q01DX011 (ip), vehicle: saline with Tween-80, higher = longer survival.
The mark [7] stands for this setting: endpoint: median survival time, dose: 2.0 mg/kg/injection, schedule: Q01DX011 (ip), vehicle: saline, higher = longer survival.
Where [8] appears, read: endpoint: median survival time, dose: 3.0 mg/kg/injection, schedule: Q01DX011 (ip), vehicle: saline, higher = longer survival.

Turning to `CC1OC(O[C@@H]2C=C3CC[C@@H]4[C@H](CC[C@]5(C)[C@@H](c6ccc(=O)oc6)CC[C@]45O)[C@@]3(C)CC2)C(O)C(O)C1O` (some centres undefined), the T/C is, setting by setting: (endpoint: mean tumor weight, dose: 0.31 mg/kg/injection, schedule: Q01DX011 (ip), vehicle: steriod suspending solution, higher = larger tumour) 92 % of control; (endpoint: mean tumor weight, dose: 0.62 mg/kg/injection, schedule: Q01DX011 (ip), vehicle: steriod suspending solution, higher = larger tumour) 114 % of control; (endpoint: mean tumor weight, dose: 1.25 mg/kg/injection, schedule: Q01DX011 (ip), vehicle: steriod suspending solution, higher = larger tumour) 36 % of control; (endpoint: mean tumor weight, dose: 2.5 mg/kg/injection, schedule: Q01DX011 (ip), vehicle: steriod suspending solution, higher = larger tumour) 50 % of control; (endpoint: median survival time, dose: 0.31 mg/kg/injection, schedule: Q01DX011 (ip), vehicle: steriod suspending solution, higher = longer survival) 122 % of control; (endpoint: median survival time, dose: 1.25 mg/kg/injection, schedule: Q01DX011 (ip), vehicle: steriod suspending solution, higher = longer survival) 113 % of control. The T/C (endpoint: median survival time, dose: 2.5 mg/kg/injection, schedule: Q01DX011 (ip), vehicle: steriod suspending solution, higher = longer survival) is 119 % of control.
As for `COc1ccc2nc3cc(Cl)ccc3c(NCCO)c2c1`, the T/C was 19 % of control (endpoint: mean tumor weight (est.), dose: 34.37 mg/kg/injection, schedule: Q01DX011 (ip), vehicle: saline with Tween-80, higher = larger tumour); 55 % of control (endpoint: mean tumor weight (est.), dose: 68.75 mg/kg/injection, schedule: Q01DX011 (ip), vehicle: saline with Tween-80, higher = larger tumour); 91 % of control (endpoint: median survival time, dose: 34.36 mg/kg/injection, schedule: Q01DX011 (ip), vehicle: saline with Tween-80, higher = longer survival); 96 % of control (endpoint: median survival time, dose: 68.75 mg/kg/injection, schedule: Q01DX011 (ip), vehicle: saline with Tween-80, higher = longer survival).
For `OCCNC1c2ccccc2-c2ccccc21`, the T/C (endpoint: mean tumor weight (est.), dose: 25.0 mg/kg/injection, schedule: Q01DX011 (ip), vehicle: saline with Tween-80, higher = larger tumour) was 90 % of control; the T/C (endpoint: mean tumor weight (est.), dose: 50.0 mg/kg/injection, schedule: Q01DX011 (ip), vehicle: saline with Tween-80, higher = larger tumour) is 91 % of control; the T/C (endpoint: mean tumor weight (est.), dose: 100.0 mg/kg/injection, schedule: Q01DX011 (ip), vehicle: saline with Tween-80, higher = larger tumour) was 67 % of control; the T/C (endpoint: median survival time, dose: 50.0 mg/kg/injection, schedule: Q01DX011 (ip), vehicle: saline with Tween-80, higher = longer survival) is 112 % of control.
For the compound `CCCCN(C)C(=S)S[Te](SC(=S)N(C)CCCC)(SC(=S)N(C)CCCC)SC(=S)N(C)CCCC`, the T/C reads like this: (endpoint: mean tumor weight (est.), dose: 100.0 mg/kg/injection, schedule: Q01DX011 (ip), vehicle: saline, higher = larger tumour) 59 % of control; (endpoint: mean tumor weight (est.), dose: 200.0 mg/kg/injection, schedule: Q01DX011 (ip), vehicle: saline, higher = larger tumour) 36 % of control; (endpoint: mean tumor weight (est.), dose: 400.0 mg/kg/injection, schedule: Q01DX011 (ip), vehicle: saline, higher = larger tumour) 17 % of control; under setting [1], 114 % of control; under setting [2], 110 % of control; under setting [3], 121 % of control.
In the case of `CC(=O)OC(C1CO1)C(OC(C)=O)C1CO1` (centres undefined), the T/C (endpoint: median survival time, dose: 5.0 mg/kg/injection, schedule: Q01DX011 (ip), vehicle: saline, higher = longer survival) was 105 % of control and the T/C (endpoint: median survival time, dose: 10.0 mg/kg/injection, schedule: Q01DX011 (ip), vehicle: saline, higher = longer survival) was 121 % of control.
In the case of `C/C(=C\COc1ccc2ccc(=O)oc2c1)C1=CC(=O)C(C)(C)O1`, the T/C is 55 % of control under setting [4]; 47 % of control (endpoint: mean tumor weight, dose: 200.0 mg/kg/injection, schedule: Q01DX011 (ip), vehicle: saline, higher = larger tumour); 62 % of control (endpoint: mean tumor weight, dose: 400.0 mg/kg/injection, schedule: Q01DX011 (ip), vehicle: saline, higher = larger tumour); 108 % of control under setting [1]; 100 % of control under setting [2]; 102 % of control under setting [3].
Turning to `O=c1[nH]c2cc(Cl)ccc2c(CCl)c1Cl`, the T/C (endpoint: mean tumor weight, dose: 25.0 mg/kg/injection, schedule: Q01DX011 (ip), vehicle: saline, higher = larger tumour) is 112 % of control; the T/C (endpoint: mean tumor weight, dose: 50.0 mg/kg/injection, schedule: Q01DX011 (ip), vehicle: saline, higher = larger tumour) is 101 % of control; the T/C under setting [4] is 115 % of control; the T/C (endpoint: median survival time, dose: 25.0 mg/kg/injection, schedule: Q01DX011 (ip), vehicle: saline, higher = longer survival) is 95 % of control; the T/C (endpoint: median survival time, dose: 50.0 mg/kg/injection, schedule: Q01DX011 (ip), vehicle: saline, higher = longer survival) is 102 % of control; the T/C under setting [1] was 89 % of control.
For `Cc1n(Cc2ccccc2)c2c([n+]1C)C(=O)c1ccccc1C2=O`, the T/C is 48 % of control (endpoint: mean tumor weight (est.), dose: 0.13 mg/kg/injection, schedule: Q01DX011 (ip), vehicle: saline with Tween-80, higher = larger tumour); 50 % of control (endpoint: mean tumor weight (est.), dose: 0.25 mg/kg/injection, schedule: Q01DX011 (ip), vehicle: saline with Tween-80, higher = larger tumour); 31 % of control (endpoint: mean tumor weight (est.), dose: 0.5 mg/kg/injection, schedule: Q01DX011 (ip), vehicle: saline with Tween-80, higher = larger tumour); 36 % of control (endpoint: mean tumor weight (est.), dose: 1.0 mg/kg/injection, schedule: Q01DX011 (ip), vehicle: saline with Tween-80, higher = larger tumour); 43 % of control under setting [5]; 110 % of control (endpoint: median survival time, dose: 0.13 mg/kg/injection, schedule: Q01DX011 (ip), vehicle: saline with Tween-80, higher = longer survival). In addition, the T/C was 100 % of control (endpoint: median survival time, dose: 0.25 mg/kg/injection, schedule: Q01DX011 (ip), vehicle: saline with Tween-80, higher = longer survival); 106 % of control (endpoint: median survival time, dose: 0.5 mg/kg/injection, schedule: Q01DX011 (ip), vehicle: saline with Tween-80, higher = longer survival); 89 % of control (endpoint: median survival time, dose: 1.0 mg/kg/injection, schedule: Q01DX011 (ip), vehicle: saline with Tween-80, higher = longer survival); 89 % of control under setting [6].
Consider `Cc1n(CC(C)C)c2c([n+]1C)C(=O)c1ccccc1C2=O`, for which the T/C reads like this: under setting [5], 40 % of control; under setting [6], 91 % of control.
As for `OC(C1CO1)C(O)C1CO1` (centres undefined), the T/C (endpoint: median survival time, dose: 1.0 mg/kg/injection, schedule: Q01DX011 (ip), vehicle: saline, higher = longer survival) is 110 % of control; the T/C under setting [7] is 108 % of control; the T/C under setting [8] is 114 % of control.
In the case of `COC(=O)Nc1nc2ccc(C3(c4ccc(F)cc4)OCCO3)cc2[nH]1`, the T/C reads like this: (endpoint: median survival time, dose: 20.0 mg/kg/injection, schedule: Q01DX011 (oral), vehicle: other, higher = longer survival) 97 % of control; (endpoint: median survival time, dose: 40.0 mg/kg/injection, schedule: Q01DX011 (oral), vehicle: other, higher = longer survival) 97 % of control.
For `O=C1NC(=O)C(F)(F)C(O)N1` (centres undefined), the T/C is 103 % of control (endpoint: mean tumor weight (est.), dose: 40.0 mg/kg/injection, schedule: Q01DX011 (ip), vehicle: saline, higher = larger tumour); 80 % of control (endpoint: mean tumor weight (est.), dose: 80.0 mg/kg/injection, schedule: Q01DX011 (ip), vehicle: saline, higher = larger tumour); 43 % of control (endpoint: mean tumor weight (est.), dose: 160.0 mg/kg/injection, schedule: Q01DX011 (ip), vehicle: saline, higher = larger tumour); 98 % of control (endpoint: median survival time, dose: 40.0 mg/kg/injection, schedule: Q01DX011 (ip), vehicle: saline, higher = longer survival); 103 % of control (endpoint: median survival time, dose: 80.0 mg/kg/injection, schedule: Q01DX011 (ip), vehicle: saline, higher = longer survival).
Turning to `O=S(=O)(O)SCCNCCCCCC1CCCCC1`, the T/C is 78 % of control (endpoint: mean tumor weight (est.), dose: 0.75 mg/kg/injection, schedule: Q01DX011 (ip), vehicle: saline, higher = larger tumour); 80 % of control (endpoint: mean tumor weight (est.), dose: 1.5 mg/kg/injection, schedule: Q01DX011 (ip), vehicle: saline, higher = larger tumour); 88 % of control (endpoint: mean tumor weight (est.), dose: 3.0 mg/kg/injection, schedule: Q01DX011 (ip), vehicle: saline, higher = larger tumour); 100 % of control (endpoint: mean tumor weight (est.), dose: 6.0 mg/kg/injection, schedule: Q01DX011 (ip), vehicle: saline, higher = larger tumour); 94 % of control (endpoint: median survival time, dose: 0.75 mg/kg/injection, schedule: Q01DX011 (ip), vehicle: saline, higher = longer survival); 111 % of control (endpoint: median survival time, dose: 1.5 mg/kg/injection, schedule: Q01DX011 (ip), vehicle: saline, higher = longer survival). Also, the T/C is 107 % of control under setting [8] and 96 % of control (endpoint: median survival time, dose: 6.0 mg/kg/injection, schedule: Q01DX011 (ip), vehicle: saline, higher = longer survival).
`CCN(CC)CCCC(C)Nc1c2ccccc2nc2c(Cl)cccc12` (centres undefined): the T/C by setting is: (endpoint: mean tumor weight (est.), dose: 7.5 mg/kg/injection, schedule: Q01DX011 (ip), vehicle: saline, higher = larger tumour) 81 % of control; (endpoint: mean tumor weight (est.), dose: 15.0 mg/kg/injection, schedule: Q01DX011 (ip), vehicle: saline, higher = larger tumour) 96 % of control; (endpoint: mean tumor weight (est.), dose: 30.0 mg/kg/injection, schedule: Q01DX011 (ip), vehicle: saline, higher = larger tumour) 95 % of control.
Turning to `N=[N+]=CC(=O)OCC(N)C(=O)O` (centres undefined), the T/C (endpoint: mean tumor weight, dose: 2.0 mg/kg/injection, schedule: Q01DX011 (ip), vehicle: saline, higher = larger tumour) is 94 % of control; the T/C (endpoint: mean tumor weight, dose: 4.0 mg/kg/injection, schedule: Q01DX011 (ip), vehicle: saline, higher = larger tumour) is 71 % of control; the T/C (endpoint: mean tumor weight, dose: 8.0 mg/kg/injection, schedule: Q01DX011 (ip), vehicle: saline, higher = larger tumour) is 27 % of control; the T/C under setting [7] is 96 % of control and 107 % of control; the T/C (endpoint: median tumor weight (est.), dose: 2.0 mg/kg/injection, schedule: Q01DX011 (ip), vehicle: saline, higher = larger tumour) was 79 % of control; the T/C (endpoint: median tumor weight (est.), dose: 8.0 mg/kg/injection, schedule: Q01DX011 (ip), vehicle: saline, higher = larger tumour) was 50 % of control.
